A short description of series [1]: Fluorescence titration, binding affinity for TO3-Biotin. Particulars: ligand TO3-B (TO3-Biotin). An excerpt:
FIG. 2|RNA Mango I, II, III and IV core sequences and their properties. (a) Color coded alignment of RNA Mango I, II, III and IV. G residues in yellow are protected from DMS cleavage (data from panel d) when folded in the presence of fluorophore. Quadruplex stacks and their associated propeller sequences are numbered 1 through 4. The GAAA isolation motif of Mango I, together with two adenines essential for binding, are shown in green and red respectively. Purple shading represents a flanking stem region common for all four Mango aptamers. Schematic: A tertiary structure schematic of Mango I, showing tier 1, 2 and 3 of its quadruplex structure (T1, T2 and T3) and color-coded as in (a). […] Bottom: Top view of the Mango I core (PBD ID: 5V3F), showing the T3 tier of the quadruplex and relevant propeller residues, color coding matches the schematic and panel a. […] KD values are shown next to each titration. (c) Same as for panel b but using 20 nM TO3-Biotin. Data for panels b and c have been normalized such that Mango I has a maximum fluorescence of 1. Error bars are standard deviation of three replicates. (d) DMS chemical protection patterns for the four Mango aptamers. 3′ end-labelled RNA (terminal ^32pCp shown as a black asterisk) was subjected to DMS chemical modification followed by reduction by NaBH4 and aniline cleavage as described in the methods. […] Legend: T1—denatured T1 ladder; OH—partial alkaline hydrolysis ladder; (−) DMS—denatured reaction with ddH2O added in place of DMS; 80° C.
Fluorescence data was gathered using a Varian Cary Eclipse Spectrophotometer unless otherwise stated. […] Fluorescence was measured at the maximum excitation and emission wavelengths of each complex (FIG. 13).
Or to the following equation for TO3-Biotin and NMM experiments: F([RNA])=Fmax[RNA]/(KD+[RNA])+Funbound (Eq. 2) Fmax was determined using Eq. 1 or Eq. 2 as appropriate. Temperature Dependent Fluorescence and UV Melting Curves
Fluorescence readings were recorded using a Varian Cary Eclipse Spectrophotometer set to measure at the maximum excitation and emission wavelengths of the Mango II aptamer dye complex. Fluorescence titrations were performed in Mango selection buffer (WB: 140 mM KCl, 1 mM MgCl2, 10 mM NaH2PO4 pH 7.2, 0.05% Tween-20).

Series [2] is described as follows: Fluorescence enhancement of TO1-OAc. Conditions: ligand TO1-OAc. The class given is biochemical. As to the method: The bandwidth for all measurements was 1.5 nm for all experiments. Measurements were performed in a 0.2 cm path length cuvette in a background of 20 mM MOPS pH 7.0, 150 mM KCl, 10 μM EDTA. Fluorescence readings were taken in the absence of RNA at a ligand concentration of 0.82 μM. A concentrated, annealed stock of RNA was then added to the cuvette resulting in a final concentration of 2 μM RNA and allowed to equilibrate for 1 minute prior to taking an emission reading. Fluorescence enhancement was determined by dividing the fluorescence signal of ligand in the presence of RNA by the fluorescence signal in the absence of RNA corrected for the background of the instrument.

Series [3] is described as follows: Fluorescence lifetime measurements (TCSPC). The class given is physicochemical. Conditions: for α1 (%): amplitude of τ1; for α2 (%): amplitude of τ2; for τi (ns), intensity-weighted average lifetime / τa (ns), amplitude-weighted average lifetime: calculated from the components; for τ1 (ns) / τ2 (ns): free TO1-Biotin or RNA bound to TO1-Biotin. As to the method:
Fluorophore lifetime measurements were performed by using an in-house modified 2-photon fluorescence microscope based on a Zeiss LSM 510 unit capable of Time-Correlated Single-Photon Counting (TCSPC) measurements. A diode-pumped solid state laser (Millenia Prime, Spectra Physics, Newport, Calif.) was used to pump a Ti:Sapphire Tsunami oscillator (Model 3960C, Spectra Physics, Newport, Calif.), operating in femtosecond mode, at a repetition rate of 80 MHz, and tunable in the near infrared region. The output beam of the Ti:Sapphire laser was directed into an acousto-opto modulator (MT110/B50/A1.5 IR/S, AA Optoelectronic, France), controlled through the Zeiss LSM electronics and software, to attenuate the power before steering it into the LSM unit. The beam was reflected onto a 700/488 dichroic mirror and directed into the back aperture of a Plan Apochromat 63×, NA 1.4, oil immersion objective, and expanded to fill the back pupil. The fluorescence from the sample was collected from the same objective, intercepted by a 733LP dichroic mirror, sent toward the back port of the microscope, filtered through an ET700SP-2P filter (Chroma Technologies, Bellows Falls, Vt.) to remove residual scattering from the laser, and further passed through a 540/50 nm bandpass filter (Semrock, Rochester, N.Y.). The fluorescence is finally focused onto the photocathode of a H7422P-40 GaAsP photomultiplier detector (Hamamatsu, Japan). The large NA of the objective contributes to a certain degree of depolarization of the incoming excitation beam, as well as of the detected fluorescence. According to Fisz (J. Chem. Phys. A, 2007 and 2009), this would allow one to omit an analyzer (polarizer) in front of our detector, because magic angle conditions are achieved by using a 45° angle detection (i.e. unpolarized) configuration. The signal from the detector and the synchronization signal from the laser are directed into an SPC150 photon counting card (Becker & Hickl, Germany), controlled by the SPCM64 proprietary software from the manufacturer (Becker & Hickl, Germany). The data were collected with a 12.5 ns time window in TCSPC histogramming mode with 1024 channels, with a width of 12.2 ps each.
For the experiments the laser was tuned at 780 nm, and the power adjusted to 18 mW before the objective lens. RNA samples were diluted to a concentration of ˜3-5 μM in buffer. TO-1B was measured at a concentration of 50 μM due to low fluorescence signal of the compound, compared to the RNA-bound version. An 80 μl droplet was deposited onto a #1.5 coverslip, previously treated with BSA to avoid nonspecific binding of RNA to the glass, and covered to avoid evaporation. The excitation was focused ˜5 μm above the upper surface of the coverslip to reduce scatter and to avoid collecting signal from molecules immobilized on the glass surface. The beam was kept stationary by using the LSM controller to simply open the excitation shutter, and data were collected until the maximum count in the peak channel of the TCSPC histogram reached 10^4 photons. Experiments were repeated in triplicate. An instrument response function (IRF) was collected on every day of measurement by recording the second harmonic generation (SHG) signal from crushed urea crystals deposited onto a glass coverslip, in this case the bandpass filter before the detector was substituted with a 440 nm short pass filter to collect the 390 nm SHG. The data collected with the SPCM64 software were stored as *.sdt files for subsequent analysis.
Data were analyzed using the SPCImage software (Becker & Hickl, Germany). The fluorescence decay curves were fit using exponential functions of the form:
Where n is at most equal to 3 in our software. The data fitting routine uses a least-square algorithm where the exponential function is first reconvoluted with the measured IRF and then fit to the data. The shift of the IRF for each dataset, as well as a scatter contribution were included as free parameters during fitting. […]

Values joined by “and” are separate entries in the source; they are usually repeats but may differ in a detail not shown here. Equal values may be shown once.

For orientation: Kd means the equilibrium constant for the complex coming apart. High values mean a looser complex, low ones a tighter complex.

As for “Mango-II: minimal construct engineered from isolate R2-1; SEQ ID NO: 6902 GCGUACGAAGGAGAGGAGAGGAAGAGGAGAGUACGC (chemistry not given here)”, the Kd in series [1] is 1.4 nM and ~1.4 nM. The “FIE (fluorescence enhancement)” value in series [2] was found to be 258 ± 10. Moreover, in series [3], the “α1 (%)” value was determined as 45%; the “α2 (%)” value was determined as 55%; the “τi (ns), intensity-weighted average lifetime” value is 2.05 ns. Further, in series [3] (listed as Mango II wt), the “τa (ns), amplitude-weighted average lifetime” value (“τa (ns)” below) is 1.51 ns; the “τ1 (ns)” value was found to be 0.52 ns; the “τ2 (ns)” value was determined as 2.33 ns. Also, in series [3] (listed as wild-type Mango-II), the “τa (ns)” value is 1.51 (±0.06) ns; the “τ1 (ns)” value is recorded as 0.52 (±0.02) ns; the “τ2 (ns)” value is given as 2.33 (±0.12) ns.

B1: Mango II - A22U: Mango-II point mutant; SEQ ID NO: 6903 / 6905 (nucleic acid)
chain 1: GCGUACGAAGGAGAGGAGAGGUAGAGGAGAGUACGC
chain 2: GGCACGUACGAAGGAGAGGAGAGGUAGAGGAGAGUACGUGC
modifications: chemistry not given here
Take B1: the Kd in series [1] came out at 5 ± 2.8 nM. Also, the “FIE (fluorescence enhancement)” value in series [2] worked out at 315 ± 4. In series [3], the “α1 (%)” value is recorded as 45%; the “α2 (%)” value came out at 55%; the “τa (ns)” value is 1.92 ns; the “τi (ns), intensity-weighted average lifetime” value is 2.53 ns. In series [3], the “τ1 (ns)” value worked out at 0.72 ns and the “τ2 (ns)” value is 2.904 ns. In addition, in series [3] (listed as A22U mutant), the “τa (ns)” value is listed as 1.92 (±0.03) ns; the “τ1 (ns)” value is 0.72 (±0.01) ns; the “τ2 (ns)” value is on record as 2.904 (±0.001) ns.

Source of the values: US11434490B2, “Fluorogen-binding RNA aptamers” (CENTRE NATIONAL DE LA RECHERCHE SCIENTIFIQUE, priority 2017, dated 2022).
